Experimental findings from patent US5225528A, “Cyclic hexapeptide oxytocin antagonists” (priority 1990, dated 1993) are described below.

Counter-ions that a name gives are not always drawn. Like-named read-outs stand apart in the source and are kept apart here. Numbered stars: 1 amine (or outer) side, 2 acyl side, 3 side chain; on linkers, the order of the positions; unused ones are H or OH. Square brackets hold non-standard residues; d marks the D form. Peptide text beside a SMILES is read from it. * marks the point of attachment. X2 = O=C(OCc1ccccc1)N1CCN([*:1])[C@H](C(=O)[*:2])C1; X4 = O=C([C@@H](Cc1cn(COCc2ccccc2)cn1)N[*:1])[*:2]; dPiz(1,6-dehydro) = O=C(O)[C@H]1CCC=NN1; d2Nal = N[C@H](Cc1ccc2ccccc2c1)C(=O)O; Ethylenediamine = C(CN[*:2])N[*:1]; Pip(4-aza) = O=C(O)[C@@H]1CNCCN1; dNMeF = CN[C@H](Cc1ccccc1)C(=O)O; dPip(4-aza) = O=C(O)[C@H]1CNCCN1; Pip = O=C(O)[C@@H]1CCCCN1; dPip = O=C(O)[C@H]1CCCCN1; Orn = NCCC[C@H](N)C(=O)O; Boc = CC(C)(C)OC(=O)*; Bn = c1ccc(C*)cc1

In assay [1] the target is T1, AVP-V1 sites (Rattus norvegicus, UniProt P30560).
T1 construct: crude membrane preparation of male rat liver (AVP-V1 sites); from tissue; host or cells: male rat liver, crude membranes
T1 sequence (P30560 whole entry): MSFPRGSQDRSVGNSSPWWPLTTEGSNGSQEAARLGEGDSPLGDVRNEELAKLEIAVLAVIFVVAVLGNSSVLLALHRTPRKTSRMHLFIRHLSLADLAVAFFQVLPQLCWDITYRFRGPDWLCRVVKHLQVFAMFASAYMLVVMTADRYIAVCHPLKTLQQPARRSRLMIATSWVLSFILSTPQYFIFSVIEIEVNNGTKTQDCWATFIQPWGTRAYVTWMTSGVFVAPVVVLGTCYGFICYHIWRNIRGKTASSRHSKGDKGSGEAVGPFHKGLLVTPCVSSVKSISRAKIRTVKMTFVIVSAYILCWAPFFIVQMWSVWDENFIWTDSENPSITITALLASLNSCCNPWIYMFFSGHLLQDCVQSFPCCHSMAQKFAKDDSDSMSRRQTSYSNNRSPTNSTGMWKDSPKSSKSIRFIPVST
Put plainly: [^3 H]AVP binding to crude membrane preparation of male rat liver (AVP-V1 sites). How it is done:
(§1) Nonspecific binding (5-10% of the total binding) was determined using 10 μM unlabeled AVP, and the binding reaction was terminated by filtration as described above for the [^3 H]OT binding assay.

Assay [2] addresses T2, uterine OT receptors (Rattus norvegicus, UniProt P70536).
T2 construct: from tissue; host or cells: uterus of DES-treated rats, crude membranes
T2 sequence (P70536 1-388): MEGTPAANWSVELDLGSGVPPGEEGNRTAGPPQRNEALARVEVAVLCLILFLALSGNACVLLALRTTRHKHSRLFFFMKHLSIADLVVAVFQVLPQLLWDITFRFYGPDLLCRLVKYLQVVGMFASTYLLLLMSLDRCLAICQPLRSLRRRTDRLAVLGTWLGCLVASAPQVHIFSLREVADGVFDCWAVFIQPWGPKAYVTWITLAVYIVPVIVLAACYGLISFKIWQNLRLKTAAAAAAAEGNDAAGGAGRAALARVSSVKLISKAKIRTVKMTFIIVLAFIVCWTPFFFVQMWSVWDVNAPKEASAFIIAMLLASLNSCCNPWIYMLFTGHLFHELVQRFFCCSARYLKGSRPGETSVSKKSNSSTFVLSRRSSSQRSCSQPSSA
Nature of the assay: [^3 H]OT binding to uterine OT receptors, crude membrane preparation of uteri from DES-treated rats. The settings on record: for IC50: rat uterus membranes, 1 nM [^3 H]OT, read-out: Receptor Binding Results IC50 (nM) [^3 H]OT; for inhibition at 0.1 µM: @ 100 (nM). How it is done:
Competition studies were conducted at equilibrium (60 minutes; 22° C.) using 1 nM [^3 H]OT in the following assay buffer: 50 mM Tris-HCl, 5 mM MgCl2, and 0.1% BSA, pH 7.4.

The target of assay [3] is T3, AVP-V2 sites (Rattus norvegicus, UniProt Q00788).
T3 construct: male rat liver (AVP-V1 sites) or kidney medulla (AVP-V2 sites); from tissue; host or cells: male rat kidney medulla, crude membranes
T3 sequence (Q00788 whole entry): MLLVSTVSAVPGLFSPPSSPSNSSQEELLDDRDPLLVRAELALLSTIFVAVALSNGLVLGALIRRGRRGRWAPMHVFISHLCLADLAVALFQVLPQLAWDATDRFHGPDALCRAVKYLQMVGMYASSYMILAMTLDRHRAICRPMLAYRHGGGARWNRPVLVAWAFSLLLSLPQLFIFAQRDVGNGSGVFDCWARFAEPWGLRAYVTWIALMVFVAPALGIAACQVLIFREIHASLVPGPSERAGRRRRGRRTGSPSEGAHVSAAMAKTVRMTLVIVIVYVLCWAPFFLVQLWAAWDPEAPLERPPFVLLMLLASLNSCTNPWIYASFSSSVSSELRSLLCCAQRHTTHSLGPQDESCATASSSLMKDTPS
Nature of the assay: [^3 H]AVP binding to crude membrane preparation of male rat kidney medulla (AVP-V2 sites). To be noted: for inhibition at 1 µM: 0.5 h, @ 1,000 (nM), read-out: [^3 H]-AVP-V2: percent inhibition of radioligand at the given concentration. How it is done: as §1

Where [4] appears, read: Receptor Binding Results IC50 (nM) [^3 H]-AVP-V1.
The mark [5] stands for this setting: rat kidney medulla membranes, 2 nM [^3 H]AVP, read-out: Receptor Binding Results IC50 (nM) [^3 H]-AVP-V2.
Where [6] appears, read: read-out: Receptor Binding Results IC50 (nM) [^3 H]-AVP-V1.
Where [7] appears, read: read-out: Receptor Binding Results IC50 (nM) [^3 H]-AVP-V2.
Where [8] appears, read: 1 h, read-out: [^3 H]OT: percent inhibition of radioligand at the given concentration.

As a reminder, the IC50 is the concentration needed to halve the response being measured. Regarding `CC[C@H](C)[C@@H]1NC(=O)[C@@H](Cc2c[nH]c3ccccc23)NC(=O)[C@@H]2CCCN2C(=O)[C@@H](Cc2c[nH]cn2)NC(=O)[C@H](CCCNC(=O)OC(C)(C)C)NC(=O)[C@H]2CCCCN2C1=O` [Example 129, c-[D-Tryptophanyl-L-isoleucyl-D-pipecolyl-(N^δ -Boc)-L-ornithyl-D-histidyl-L-prolyl] acetate salt] (cyclo(I[dPip][Orn](Boc)[dH]P[dW])), the 50% inhibitory concentration (IC50) in assay [1] (setting [4]) amounted to 10000 nM; in assay [2], 100 nM; in assay [3] (setting [5]), 10000 nM.
As for `CC[C@H](C)[C@@H]1NC(=O)[C@@H](Cc2ccccc2)NC(=O)[C@@H]2CCCN2C(=O)[C@@H](Cc2ccccc2)N(C)C(=O)[C@H](CCCNC(=O)OC(C)(C)C)NC(=O)[C@H]2CCC=NN2C1=O` [Example 124, c-[D-Phenylalanyl-L-isoleucyl-D-Δ-piperazyl(N^δ -Boc)-L-orinthyl-N-methyl-D-δ-phenyl-alaninyl-L-prolyl]] (cyclo(I[dPiz(1,6-dehydro)][Orn](Boc)[dNMeF]P[dF])), the figures for the IC50 in assay [1] (setting [6]), in assay [2] and in assay [3] (setting [7]) were 2700 nM, 17.5 nM and 3600 nM, respectively.
The corresponding values for `CC[C@H](C)[C@@H]1NC(=O)[C@@H](Cc2ccccc2)NC(=O)[C@@H]2CCCN2C(=O)[C@@H](Cc2ccccc2)N(C)C(=O)[C@H](CC(=O)NCCN)NC(=O)[C@H]2CCCCN2C1=O` [Example 119, c-[D-Phenylalanyl-L-isoleucyl-D-pipecolyl-N^β -(aminoethyl)-L-asparagyl-N-methyl-D-phenylalanyl-L-prolyl]] (cyclo(D(Ethylenediamine)[dNMeF]P[dF]I[dPip])) are 7300 nM, 260 nM and 3100 nM.
On to `CC[C@H](C)[C@@H]1NC(=O)[C@@H](Cc2c[nH]c3ccccc23)NC(=O)[C@@H]2CCCN2C(=O)[C@@H](Cc2ccccc2)NC(=O)[C@@H]2CN(C(=O)OCc3ccccc3)CCN2C(=O)[C@H]2CCCCN2C1=O` [Example 89, c-[D-Tryptophanyl-L-isoleucinyl-D-pipecolyl-L-piperazin-2-yl(4-Cbz)-D-phenylalanyl-L-prolyl]] (cyclo(I[dPip][X2][dF]P[dW])), for which the concentration for half-maximal inhibition (IC50) was greater than 10000 nM in assay [1] (setting [4]) and greater than 1000 nM in assay [3] (Receptor Binding Results IC50 (nM) [^3 H]-AVP-V2). Besides, in assay [2] (setting [8]), the inhibition at 0.1 µM amounted to 35%.
On to `CC[C@H](C)[C@@H]1NC(=O)[C@@H](Cc2ccc3ccccc3c2)NC(=O)[C@@H]2CCCN2C(=O)[C@@H](Cc2c[nH]cn2)NC(=O)[C@@H]2CNCCN2C(=O)[C@H]2CCCCN2C1=O` [Example 159, c-[D-2-Naphthylalanyl-L-isoleucyl-D-pipecolyl-L-piperazin-2-yl-D-histidyl-L-prolyl]] (cyclo(I[dPip][Pip(4-aza)][dH]P[d2Nal])), for which the IC50 in assay [1] (setting [6]) came out at 4650 nM; in assay [2], 1.8 nM; in assay [3] (setting [7]), 690 nM.
For `CC[C@H](C)[C@@H]1NC(=O)[C@@H](Cc2ccccc2)NC(=O)[C@@H]2CCCN2C(=O)[C@@H](Cc2ccccc2)NC(=O)[C@H](CC(N)=O)NC(=O)[C@H]([C@@H](C)O)NC1=O` [Example 98, c-[D-Phenylalanyl-L-isoleucyl-L-threonyl-L-asparagyl-D-phenylalanyl-L-prolyl]] (cyclo(ITN[dF]P[dF])), the results for the IC50 in assay [1] (setting [4]), in assay [2] and in assay [3] (setting [5]) were greater than 10000 nM, 7700 nM and greater than 10000 nM, respectively.
The compound `CC[C@H](C)[C@@H]1NC(=O)[C@@H](Cc2ccc3ccccc3c2)NC(=O)[C@@H]2CCCN2C(=O)[C@@H](Cc2ccccc2)N(C)C(=O)[C@H](CCCCNC(=O)OC(C)(C)C)NC(=O)[C@H]2CCCCN2C1=O` [Example 138, c-[D-2-Naphthylalanyl-L-isoleucyl-D-pipecolyl-L-(N-t-butyloxycarbonyl)lysyl-D-(N-methyl)phenylalanyl-L-prolyl]] (cyclo(I[dPip]K(Boc)[dNMeF]P[d2Nal])) came in with a half-inhibitory concentration (IC50) in assay [1] (setting [4]) of 10000 nM. Moreover, in assay [2] (setting [8]), the inhibition at 0.1 µM was determined as 50%. In addition, the inhibition at 1 µM in assay [3] is 42%.
For `CC[C@H](C)[C@@H]1NC(=O)[C@@H](Cc2c[nH]c3ccccc23)NC(=O)[C@@H]2CCCN2C(=O)[C@@H](Cc2cn(COCc3ccccc3)cn2)NC(=O)[C@@H]2CNCCN2C(=O)[C@H]2CCCCN2C1=O` [Example 177, c-[D-Tryptophanyl-L-isoleucinyl-D-pipecolyl-L-piperazin-2-yl-D-histidinyl(BOM)-L-prolyl]] (cyclo([dW]I[dPip][Pip(4-aza)][X4]P)), the concentration for half-maximal inhibition (IC50) in assay [1] (setting [6]) amounted to 16000 nM; in assay [2] it was 76 nM; in assay [3] (setting [7]) it was 12000 nM.
Consider `CC[C@H](C)[C@@H]1NC(=O)C(Cc2c[nH]c3ccc(F)cc23)NC(=O)[C@@H]2CCCN2C(=O)[C@@H](Cc2c[nH]cn2)NC(=O)[C@@H]2CCCCN2C(=O)[C@H]2CCCCN2C1=O` (single isomer, unassigned) [157 higher Rf], for which the IC50 in assay [1] (setting [4]) was 10000 nM; in assay [2], 590 nM; in assay [3] (setting [5]), greater than 10000 nM.
As for `CC[C@H](C)[C@@H]1NC(=O)[C@@H](Cc2ccc(OCc3ccccc3)cc2)NC(=O)[C@@H]2CCCN2C(=O)[C@@H](Cc2ccccc2)N(C)C(=O)[C@H](CCCCNC(=O)OC(C)(C)C)NC(=O)[C@H]2CCCCN2C1=O` [Example 142, C-[D-(O-Benzyl)-tyrosinyl-L-isoleucyl-D-pipecolyl-L-(N-t-butyloxycarbonyl)lysyl-D-(N-methyl)phenylalanyl-L-prolyl]] (cyclo(I[dPip]K(Boc)[dNMeF]P[dY](Bn))), the IC50 in assay [1] (setting [4]) and in assay [3] (setting [5]) was greater than 10000 nM throughout. Moreover, the inhibition at 1 µM in assay [2] (1 h, @ 1,000 (nM), read-out: [^3 H]OT: percent inhibition of radioligand at the given concentration) amounted to 12%.
As for `CC[C@H](C)[C@@H]1NC(=O)[C@@H](Cc2ccc(O)cc2)NC(=O)[C@@H]2CCCN2C(=O)[C@@H](Cc2ccccc2)N(C)C(=O)[C@H](CCCCN)NC(=O)[C@H]2CCCCN2C1=O` [Example 147, C-[D-Tyrosyl-L-isoleucyl-D-pipecolyl-L-lysyl-D-(N-methyl)phenylalanyl-L-prolyl]] (cyclo(I[dPip]K[dNMeF]P[dY])), the half-inhibitory concentration (IC50) in assay [1] (setting [4]) was 10000 nM; in assay [2] it was 860 nM; in assay [3] (setting [5]), 10000 nM.
Turning to `CC[C@H](C)[C@@H]1NC(=O)[C@@H](Cc2ccccc2)NC(=O)[C@@H]2CCCN2C(=O)[C@@H](Cc2ccccc2)NC(=O)[C@@H]2CCCCN2C(=O)[C@H]2CNCCN2C1=O` [Example 84, c-[D-Phenylalanyl-L-isoleucinyl-D-piperazin-2-yl-L-pipecolyl-D-phenyalanyl-L-prolyl]] (cyclo(I[dPip(4-aza)][Pip][dF]P[dF])), the 50% inhibitory concentration (IC50) was 10000 nM in assay [1] (setting [4]), greater than 1000 nM in assay [2] and greater than 10000 nM in assay [3] (setting [5]).
With `CC[C@H](C)[C@@H]1NC(=O)[C@@H](Cc2ccccc2)NC(=O)[C@@H]2CCCN2C(=O)C(Cc2cccnc2)NC(=O)[C@@H]2CCCCN2C(=O)[C@H]2CCCCN2C1=O` (single isomer, unassigned) [Example 10 (isomer 2), Cyclo[D-Phe-L-Ile-D-Pip-L-Pip-D,L-3-PyrAla-L-Pro]], the IC50 in assay [1] (setting [4]) is greater than 10000 nM; in assay [2] it was 1000 nM; in assay [3] (setting [5]), 10000 nM.
The corresponding values for `CC[C@H](C)[C@@H]1NC(=O)[C@@H](Cc2ccccc2)NC(=O)[C@@H]2CCCN2C(=O)[C@@H](Cc2ccccc2)NC(=O)[C@@H]2CNCCN2C(=O)[C@H]2CCCN2C1=O` [Example 164, c-[D-Phenylalanyl-L-isoleucinyl-D-prolyl-L-piperazin-2-yl-D-phenylalanyl-L-prolyl]] (cyclo(I[dP][Pip(4-aza)][dF]P[dF])) are 10000 nM, 1300 nM and greater than 10000 nM.
Turning to `CC[C@H](C)[C@@H]1NC(=O)[C@@H](Cc2c[nH]c3ccccc23)NC(=O)[C@@H]2CCCN2C(=O)[C@@H](Cc2ccccc2)N(C)C(=O)[C@@H]2CN(C(=O)OCc3ccccc3)CCN2C(=O)[C@H]2CCC=NN2C1=O` [Example 168, c-[D-Tryptophanyl-L-isoleucinyl-D-Δ-piperazyl-L-piperazin-2-yl(4-Cbz)-N-Me-D-phenylalanyl-L-prolyl]] (cyclo(I[dPiz(1,6-dehydro)][X2][dNMeF]P[dW])), the figures for the IC50 in assay [1] (setting [4]) and in assay [2] were 10000 nM and 34 nM, respectively. The inhibition at 1 µM in assay [3] turned out to be 54%.
